Data from US9822157B2 (priority 2013, dated 2017).
Read-outs that look alike come from different tables or passages of the source.

Target: T1, human ferroportin (Homo sapiens, UniProt Q9NP59)
T1 sequence (Q9NP59 1-571): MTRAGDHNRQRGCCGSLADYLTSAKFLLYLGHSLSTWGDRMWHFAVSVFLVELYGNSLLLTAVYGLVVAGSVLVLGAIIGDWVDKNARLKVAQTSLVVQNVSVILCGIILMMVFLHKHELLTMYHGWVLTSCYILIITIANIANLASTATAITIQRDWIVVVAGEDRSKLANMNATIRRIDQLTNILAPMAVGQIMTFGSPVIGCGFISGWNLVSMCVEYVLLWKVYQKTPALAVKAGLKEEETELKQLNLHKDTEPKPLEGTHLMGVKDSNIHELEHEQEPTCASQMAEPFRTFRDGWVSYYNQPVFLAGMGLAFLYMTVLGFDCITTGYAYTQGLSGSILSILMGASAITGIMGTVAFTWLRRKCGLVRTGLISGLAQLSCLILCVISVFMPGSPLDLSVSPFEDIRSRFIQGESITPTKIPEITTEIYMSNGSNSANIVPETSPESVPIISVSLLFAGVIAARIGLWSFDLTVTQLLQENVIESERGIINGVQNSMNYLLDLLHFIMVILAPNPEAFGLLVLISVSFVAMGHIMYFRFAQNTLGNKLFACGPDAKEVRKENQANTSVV
Assay type: cell-based
Details: for % Activity At 1 uM: at 1 uM peptide, monomers and disulphide-linked dimers
Source text: The cDNA encoding the human ferroportin (SLC40A1) was cloned from a cDNA clone from Origene (NM_014585). The DNA encoding the ferroportin was amplified by PCR using primers also encoding terminal restriction sites for subcloning, but without the termination codon. The ferroportin receptor was subcloned into a mammalian GFP expression vector containing a neomycin (G418) resistance marker in such that the reading frame of the ferroportin was fused in frame with the GFP protein. The fidelity of the DNA encoding the protein was confirmed by DNA sequencing. HEK293 cells were used for transfection of the ferroportin-GFP receptor expression plasmid. The cells were grown according to standard protocol in growth medium and transfected with the plasmids using Lipofectamine (manufacturer's protocol, Invitrogen). […] The cells were propagated and frozen in aliquots.
A retro inverse peptide is a peptide with a reversed sequence in all D amino acids. […] The EC50 of these reference compounds for ferroportin degradation was determined according to the activity assay described above.

[1] = Hepcidin analog peptides, read-out: Potency EC50
[2] = cysteine replacement scan of Mini-Hepcidin derivatives
[3] = read-out: EC50 (nM) (n > 3), alanine scan of Compound 18

Substance	EC50 [1] [nM]	Potency EC50 (nM) (Hepcidin analog peptides)	also measured
H-DTHFPCISFGPRSKGWVCM-NH2 (cysteine pairing not given here) [Compound 135]	545		
H-DTHFPCIVF-NH2 [Compound 307]			% Activity At 1 uM: 75%; EC50 (read-out: EC50 (nM) (n = 3), in vitro activity as in Example 2, peptide monomers and dimers dimerized through a single disulphide linkage, n = 3): > 300 nM
H-DTHFPCIYFGPRSKGWVCK-NH2 (cysteine pairing not given here) [Compound 85]	705		
H-DTHFPCRRFGPRSKGWVC-NH2 (cysteine pairing not given here) [Compound 70]		Inactive	
H-DTHFPIAICI-NH2 [Compound 274]		Inactive	EC50 (nM) (n > 3) [2]: Not active
H-DTHFPIAIFAAGICI-NH2 [Compound 269]		Inactive	EC50 (nM) (n > 3) [2]: Not active
H-DTHFPIAIFAAICI-NH2 [Compound 270]		Inactive	EC50 (nM) (n > 3) [2]: Not active
H-DTHFPIAIFAICI-NH2 [Compound 271]		Inactive	EC50 (nM) (n > 3) [2]: Not active
H-DTHFPIAIFGPRSKGWVAM-NH2 [Compound 69]		Inactive	EC50 (nM) (n > 3) (alanine scan of Compound 18): Inactive
H-DTHFPIAIFICI-NH2 [Compound 272]		Inactive	EC50 (nM) (n > 3) [2]: Not active
H-DTHFPIAIICI-NH2 [Compound 273]		Inactive	EC50 (nM) (n > 3) [2]: Not active
H-DTHFPICAFGPRSKGWVCM-NH2 (cysteine pairing not given here) [Compound 68]	> 10000		EC50 (read-out: EC50 (n > 3), alanine scan of Compound 18): > 10000 nM
H-DTHFPICIAGPRSKGWVCM-NH2 (cysteine pairing not given here) [Compound 67]	2470		EC50 [3]: 2470 nM
H-DTHFPICIFAPRSKGWVCM-NH2 (cysteine pairing not given here) [Compound 22]	9430		EC50 [3]: 9430 nM
H-DTHFPICIFGPASKGWVCM-NH2 (cysteine pairing not given here) [Compound 34]	206		EC50 [3]: 206 nM
H-DTHFPICIFGPHRSKGWVCM-NH2 (cysteine pairing not given here) [Compound 27]	149		
H-DTHFPICIFGPRAKGWVCM-NH2 (cysteine pairing not given here) [Compound 16]	88		EC50 [3]: 88 nM
H-DTHFPICIFGPRAKGWVCM-NH2 (cysteine pairing not given here) [Compound 28]	88		
H-DTHFPICIFGPRSKAWVCM-NH2 (cysteine pairing not given here) [Compound 31]	175		EC50 [3]: 175 nM
H-DTHFPICIFGPRSKGAVCM-NH2 (cysteine pairing not given here) [Compound 66]	520		EC50 [3]: 520 nM
H-DTHFPIICI-NH2 [Compound 275]		Inactive	EC50 (nM) (n > 3) [2]: Not active
H-DTHFRCIIFGPRSKGWVCK-NH2 (cysteine pairing not given here) [Compound 125]		Inactive	
H-DTHICIAIF-NH2 [Compound 276]		Inactive	EC50 (nM) (n > 3) [2]: Not active
H-DTKFPCIIF-NH2 [Compound 302]			% Activity At 1 uM: 60%; EC50 (read-out: EC50 (n = 3), cells printed in μM, in vitro activity as in Example 2, peptide monomers and dimers dimerized through a single disulphide linkage, n = 3): > 1000 nM
H-EDTHFPCIIFGPRSKGWVCK-NH2 (cysteine pairing not given here) [Compound 103]	> 1000		
H-EDTHFPCIIFGPRSKGWVCM-NH2 (cysteine pairing not given here) [Compound 137]	873		
H-HFPCIIFGPRSKGWVCK-NH2 (cysteine pairing not given here) [Compound 99]		Inactive	
